Assay results taken from patent publication US8536178B2, “Pharmaceutical composition for preventing or treating diseases associated with beta-amyloid accumulation containing morpholin or piperazine based compounds having SO3H or COOH as active ingredient” (Korea Institute of Science and Technology, priority 2009, dated 2013).

Experiments:
Aβ40 = molecular target: T1, Aβ40 (Homo sapiens, UniProt P05067); test: Beta-amyloid accumulation inhibitory activity by thioflavin T (ThT) fluorescence intensity; assay type: biochemical; settings: Aβ40 50 μM, compound 20 mM (test compound: chemical formula 1a), 37° C., 0th to 7th day, FIG. 1
T1 construct: beta-amyloids 40 and 42 consisting of 40 and 42 amino acids
T1 sequence (P05067 672-711 limits assumed): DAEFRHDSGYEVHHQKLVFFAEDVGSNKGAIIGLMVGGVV
Experimental: In order to measure the beta-amyloid accumulation inhibitory activity of a compound according to the present invention, the following experiment was performed using thioflavin T (ThT) fluorescence intensity.
Thioflavin T (ThT) is well mixed with fibril which is a beta-amyloid aggregate in a solution and tends to increase the shifted fluorescence intensity as the concentration of fibril increases.
A solution was prepared in a DMSO solution such that Aβ40 might have a concentration of 5 mM, and diluted in a compound of chemical formula 1a by 100 times to prepare Aβ40 at a final concentration of 50 μM. The concentration of the compound was 20 mM. Tramiprosate was used as a control group. Tramiprosate is a compound known to treat Alzheimer's disease and related diseases by inhibiting the accumulation of beta-amyloid (F. Gervais, J. et al. (2007)). Subsequently, it was cultured at 37° C. for 7 days. […] It was cultured for additional 15 minutes, and then the fluorescence intensity of a half well 96 fluorescence microplate was measured by Envision 2103 multilabel reader, Perkin-Elmer. During the measurement of fluorescence intensity, the wavelengths of excitation and emission were 450 nm and 485 nm, respectively and the counting time was 0.5 sec.

Aβ40 fibril = molecular target: T2, Aβ40 fibril (Homo sapiens, UniProt P05067); test: Accumulated beta-amyloid disaggregation activity by thioflavin T (ThT) fluorescence intensity, Aβ40; assay type: biochemical; settings: Aβ40 50 μM, compound 20 mM
T2 construct: beta-amyloids 40 and 42 consisting of 40 and 42 amino acids
T2 sequence (P05067 672-711 limits assumed): as above
Experimental: (§1) In order to measure the disaggregation activity of the beta-amyloid aggregate of a compound according to the present invention, the following experiment was performed using thioflavin T (ThT) fluorescence intensity.
(§2) Thioflavin T (ThT) is well mixed with fibril which is a beta-amyloid aggregate in a solution and tends to increase the fluorescence intensity as the concentration of fibril increases.
(§3) For aggregation of beta-amyloid, a beta-amyloid stock solution was prepared. The beta-amyloid stock solutions were prepared in a DMSO solution such that Aβ40 or Aβ42 might have a concentration of 5 mM and 2.5 mM, respectively, and diluted in distilled water by 10 times to prepare Aβ40 and Aβ42 at a final concentration of 500 μM and 250 μM, respectively. It was cultured at 37° C. for 7 to 10 days to prepare a sufficient amount of beta-amyloid aggregate. Subsequently, compounds of chemical formula 1a to 1e according to the present invention or distilled water were again added into each accumulated beta-amyloid to obtain 10-times diluted solutions, and then they were cultured at 37° C. for 7 days. Distilled water was used as a control group. The final concentration of the compound was 20 mM, and the final concentrations of beta-amyloid Aβ40 or Aβ42 were 50 μM and 25 μM, respectively. After distilled water or the compound was added, 25 μl of each reaction solution on 0th, 3rd, and 7th day was aliquoted into each well, into which was added 75 μl of thioflavin T (ThT) to have thioflavin T (ThT) at a concentration of 5 μM. It was cultured for additional 15 minutes, and then the fluorescence intensity of a half well 96 fluorescence microplate was measured by Envision 2103 multilabel reader, Perkin-Elmer. During the measurement of fluorescence intensity, the wavelengths of excitation and emission were 450 nm and 485 nm, respectively and the counting time was 0.5 sec. […]

Aβ42 fibril = molecular target: T3, Aβ42 fibril (Homo sapiens, UniProt P05067); test: Accumulated beta-amyloid disaggregation activity by thioflavin T (ThT) fluorescence intensity, Aβ42; assay type: biochemical; settings: Aβ42 25 μM, compound 20 mM
T3 construct: beta-amyloids 40 and 42 consisting of 40 and 42 amino acids
T3 sequence (P05067 672-713 limits assumed): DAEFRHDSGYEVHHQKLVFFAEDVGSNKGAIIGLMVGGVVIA
Experimental: as §1, §2, §3

accumulated Aβ40 = molecular target: T4, accumulated Aβ40 (Homo sapiens, UniProt P05067); test: Beta-amyloid fibril disaggregation activity by SDS-PAGE, Aβ40; assay type: biochemical; settings: Aβ40 50 μM, compound 20 mM, 3rd and 7th day, photo-induced cross-linking, silver staining
T4 construct: beta-amyloids 40 and 42 consisting of 40 and 42 amino acids
T4 sequence (P05067 672-711 limits assumed): as the sequence (P05067 672-711 limits assumed) above
Experimental: (§4) In order to measure the accumulated beta-amyloid disaggregation activity of a compound according to the present invention, the following experiment was performed using SDS-PAGE.
(§5) When peptides or proteins are subjected to electrophoresis on an SDS gel, the secondary structures of the proteins are broken. Thus, it is necessary to cross-link the proteins and immobilize their structures. It is achieved by a photo-induced cross-linking such that the structure of accumulated beta-amyloid may not be dismissed during electrophoresis on SDS gel. Specifically, a beta-amyloid stock solution was prepared in a DMSO solution such that Aβ40 or Aβ42 may have a concentration of 5 mM or 2.5 mM, and was […] by 10 times using distilled water to prepare Aβ40 and Aβ42 at a concentration of 500 μM and 250 μM, respectively. It was cultured at 37° C. for 7 to 10 days to prepare a sufficient amount of beta-amyloid aggregate. Subsequently, compounds of chemical formula 1a to 1e according to the present invention or distilled water were again added into each accumulated beta-amyloid to obtain 10-times diluted solutions, and then they were cultured at 37° C. for 7 days. Distilled water was used as a control group. The final concentration of the compound was 20 mM, and the final concentrations of beta-amyloid Aβ40 or Aβ42 were 50 μM and 25 μM, respectively. […]

accumulated Aβ42 = molecular target: T5, accumulated Aβ42 (Homo sapiens, UniProt P05067); test: Beta-amyloid fibril disaggregation activity by SDS-PAGE, Aβ42; assay type: biochemical; settings: Aβ42 25 μM, compound 20 mM, 3rd and 7th day, photo-induced cross-linking, silver staining
T5 construct: beta-amyloids 40 and 42 consisting of 40 and 42 amino acids
T5 sequence (P05067 672-713 limits assumed): as the sequence (P05067 672-713 limits assumed) above
Experimental: as §4, §5

[1] = molecular target: T6, beta-amyloid 40 aggregate (Homo sapiens, UniProt P05067); test: Beta-amyloid fibril disaggregation activity by electronic microscope, Aβ40; assay type: biochemical; settings: Aβ40 50 μM, compound 20 mM, 3rd and 7th days, FIG. 6
T6 construct: beta-amyloids 40 and 42 consisting of 40 and 42 amino acids
T6 sequence (P05067 672-711 limits assumed): as the sequence (P05067 672-711 limits assumed) above
Experimental: (§6) In order to measure accumulated beta-amyloid disaggregation activity of a compound according to the present invention, the following experiment was performed using electronic microscope.
(§7) A beta-amyloid stock solution was prepared such that Aβ40 or Aβ42 might have a concentration of 5 mM and 2.5 mM, respectively, and diluted in distilled water by 10 times to prepare Aβ40 and Aβ42 at a final concentration of 500 μM and 250 μM, respectively. It was cultured at 37° C. for 7 to 10 days to prepare a sufficient amount of beta-amyloid aggregate. Subsequently, compounds of chemical formula 1a to 1e according to the present invention or distilled water were again added into each accumulated beta-amyloid to obtain 10-times diluted solutions, and then it was cultured at 37° C. for 7 days. Distilled water was used as a control group. The final concentration of the compound was 20 mM, and the final concentrations of beta-amyloid Aβ40 or Aβ42 were 50 μM and 25 μM, respectively. Subsequently, a compound of chemical formula 1a was added, and then the mixture was cultured at 37° C. for 7 days. From each of the reaction solutions on 0th, 3rd, and 7th days after addition of distilled water or the compound, the accumulations and disaggregation degrees of accumulated beta-amyloid were observed using analytical transmission electron microscope. […]

[2] = molecular target: T7, beta-amyloid 42 aggregate (Homo sapiens, UniProt P05067); test: Beta-amyloid fibril disaggregation activity by electronic microscope, Aβ42; assay type: biochemical; settings: Aβ42 25 μM, compound 20 mM, 3rd and 7th days, FIG. 7
T7 construct: beta-amyloids 40 and 42 consisting of 40 and 42 amino acids
T7 sequence (P05067 672-713 limits assumed): as the sequence (P05067 672-713 limits assumed) above
Experimental: as §6, §7

[3] = test system: HT-22 cells treated with Aβ40; test: Cell viability (MTT) on beta-amyloid toxicity, Aβ40; assay type: cell-based, rat; settings: HT-22, Aβ40 2 μM pre-treated with compound, 24 hours, untreated cells = 100%, FIG. 8 (a)
Experimental: (§8) In order to determine the cell survival rate of a compound according to the present invention on beta-amyloid toxicity, the following example was performed.
(§9) In order to obtain beta-amyloid aggregates, a beta-amyloid stock solution was prepared. The beta-amyloid stock solutions were prepared in a DMSO solution such that Aβ40 or Aβ42 might have a concentration of 5 mM and 2.5 mM, respectively, and diluted in distilled water by 10 times to prepare Aβ40 and Aβ42 at a final concentration of 500 μM and 250 μM, respectively. Distilled water added to each solution to culture a 10 times diluted beta-amyloid at 37° C. for 7 to 10 days. Subsequently, compounds of chemical formula 1a to 1e according to the present invention or distilled water were again added into each beta-amyloid to obtain 10-times diluted solutions, and then it was cultured at 37° C. for 7 days. Distilled water was used as a control group instead of the compound. […] The cytotoxicity of the reaction solutions on 0th, 3rd, and 7th days after addition of distilled water or the compound was measured using the following cell line.
(§10) HT-22, a neuronal cell line of a rat, was cultured in DMEM (Dulbecco's Modified Eagle's Medium) supplemented with 10% FBS (Fetal Bovine Serum) and 1% penicillin/streptomycin in an incubator of 37° C. and 5% CO2. […] 18 hours later, the optical absorption was determined at 570 nm by a microplate reader. […]

[4] = test system: HT-22 cells treated with Aβ42; test: Cell viability (MTT) on beta-amyloid toxicity, Aβ42; assay type: cell-based, rat; settings: HT-22, Aβ42 1 μM pre-treated with compound, 24 hours, untreated cells = 100%, FIG. 8 (b)
Experimental: as §8, §9, §10

HT-22 cells = test: Cytotoxicity of the compound alone (MTT); assay type: cell-based, rat; settings: HT-22, without any treatment of beta-amyloid, untreated cells = 100%

## NCCCS(=O)(=O)O [tramiprosate, Tramiprosate]
Aβ40
  increase of ThT fluorescence intensity: about 3.5 times

## O=S(=O)(O)CC(O)CN1CCN(CCO)CC1 (centres unmarked) [chemical formula 2, HEPPSO]
Aβ40 fibril
  disaggregation activity to the beta-amyloid aggregate (ThT): does not exhibit any disaggregation activity
Aβ40 fibril; 37° C., up to 7 days
  ThT fluorescence intensity compared to initially prepared aggregates (prefibrils): increased
Aβ42 fibril
  disaggregation activity to the beta-amyloid aggregate (ThT): does not exhibit any disaggregation activity
Aβ42 fibril; 37° C., up to 7 days
  ThT fluorescence intensity compared to initially prepared aggregates (prefibrils): increased

## O=S(=O)(O)CCCN1CCN(CCO)CC1 [chemical formula 1a]
Aβ40 fibril; 0th, 3rd, 7th day, FIG. 2 (a)
  course of ThT fluorescence intensity over time: increased over time
Aβ42 fibril; 0th, 3rd, 7th day, FIG. 2 (b)
  course of ThT fluorescence intensity over time: increased over time
Accumulated Aβ40
  disaggregation of accumulated beta-amyloid into monomers (SDS-PAGE band near 3.5 kD): disaggregated into monomers
Accumulated Aβ42
  disaggregation of accumulated beta-amyloid into monomers (SDS-PAGE band near 3.5 kD): disaggregated into monomers
[1]
  beta-amyloid fibrils in transmission electron microscope images: no beta-amyloid fibrils appeared on 3rd and 7th days
[2]
  beta-amyloid fibrils in transmission electron microscope images: no beta-amyloid fibrils appeared on 3rd and 7th days
[3]
  cell viability: ≥ 95%
[4]
  cell viability: ≥ 95%
HT-22 cells
  cell viability, compound only: ≥ 95%
